From PMC9026285 (ACS Chemical Neuroscience, 2022)

Tests used:
recombinant human HexA = target: T1, recombinant human HexA (Homo sapiens, UniProt P06865); experiment: Hexosaminidase A assay; type: biochemical
T1 sequence (P06865 89-529): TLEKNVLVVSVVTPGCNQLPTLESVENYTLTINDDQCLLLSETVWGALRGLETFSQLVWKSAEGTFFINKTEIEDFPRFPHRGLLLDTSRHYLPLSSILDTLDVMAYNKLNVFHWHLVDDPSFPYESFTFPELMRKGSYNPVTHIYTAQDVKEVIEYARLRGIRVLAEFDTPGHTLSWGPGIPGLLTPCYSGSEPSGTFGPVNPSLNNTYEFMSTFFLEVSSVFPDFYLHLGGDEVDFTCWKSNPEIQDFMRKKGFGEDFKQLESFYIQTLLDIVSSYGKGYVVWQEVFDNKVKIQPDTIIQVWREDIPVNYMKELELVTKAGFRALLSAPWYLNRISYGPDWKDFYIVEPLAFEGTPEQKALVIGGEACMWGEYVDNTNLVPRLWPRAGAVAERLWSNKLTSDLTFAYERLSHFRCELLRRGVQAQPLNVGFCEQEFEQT

[1] = target: HexA/B from human placenta; experiment: Hexosaminidase A/B assay; type: biochemical
[2] = cited from earlier work
[3] = test system: protein O-GlcNAcylation in human PBMC; experiment: In vitro PBMC cell-based assay, human PBMC; details: 4 h, read-out: EC50, protein O-GlcNAcylation in human PBMC
hTauP301L mice = experiment: Chronic; type: in vivo, mouse; details: P301L mice
[4] = test system: Line 61 α-synuclein transgenic mice; experiment: Beam walk test in Line 61 α-synuclein transgenic mice, chronic treatment; type: in vivo, mouse; details: Line 61 mice, 30 and 100 mg/kg/day oral, after 12 weeks, persisted to week 24
[5] = test system: GFAP (astrogliosis), pS129 and human α-synuclein; experiment: GFAP immunoassay and histopathology in Line 61 mice; type: in vivo, mouse; details: hippocampus, 24 weeks
Half-life in mice = details: mouse, in vivo
[6] = test system: brain protein and α-synuclein O-GlcNAcylation; experiment: O-protein and O-GlcNAcylated α-synuclein; details: Line 61 mice; for increase in brain protein O-GlcNAcylation (mean): 24 weeks, t = 4 h post-dose
[7] = up to the highest concentration tested (30 μM)

Structure (SMILES): CC(=O)N[C@H]1/C(=N/OC(=O)Nc2ccccc2)O[C@H](CO)[C@@H](O)[C@@H]1O [PUGNAc, reference compound]
- IC50 (recombinant human HexA): 490 nM
- IC50 ([1]; read-out: IC50 HexA/B): 31 nM

Structure (SMILES): CCN=C1N[C@@H]2[C@@H](O)[C@H](O)[C@@H](CO)O[C@@H]2S1 [Thiamet G]
- brain-to-plasma ratio [2]: 0.1

Structure (SMILES): CC(=O)Nc1nnc(N2CCN([C@@H](C)c3ccc4c(c3)OCO4)CC2)s1 [ASN90, (S)-N-(5-(4-(1-(benzo[d][1,3]dioxol-5-yl)ethyl)piperazin-1-yl)-1,3,4-thiadiazol-2-yl)acetamide]
- inhibitory activity on HexA (recombinant human HexA; [7]): no inhibitory activity
- inhibitory activity on HexA/B [1, 7]: no inhibitory activity
- EC50 [3]: 209 nM
- survival (hTauP301L mice; 30 and 100 mg/kg/day oral, 6 months): significantly increased survival
- effect on pathogenic tau pS202/205 (AT8) (hTauP301L mice; brainstem and hippocampus, chronic treatment): no statistically significant treatment effects
- motor performance in three types of beam walk (slips) [4]: highly significant treatment benefit
- object size for pS129 α-synuclein immunoreactivity [5]: significant decrease
- total α-synuclein immunoreactivity [5]: unchanged
- half-life (Half-life in mice): 2.8 h
- increase in brain protein O-GlcNAcylation (mean) ([6]; 30 mg/kg/day): +78%
- increase of O-GlcNAcylated α-synuclein as % of total ([6]; 100 mg/kg, chronic, vs vehicle): 1.7 fold
- increase in brain protein O-GlcNAcylation (mean) ([6]; 100 mg/kg/day): +105%
